Tests used:
[1] = test system: Mycosphaerella Graminicola (Septoria Tritici); assay: Mycosphaerella graminicola (Septoria tritici) / liquid culture (Septoria blotch); type: cell-based; conditions: Zymoseptoria tritici, liquid culture (PDB), growth inhibition photometrically 4-5 days after application, read-out: disease control
Method: (§1) Fungicidal Activity Against Mycosphaerella Graminicola (Septoria Tritici)/Liquid Culture (Septoria Blotch) Conidia of the fungus from cryogenic storage were directly mixed into nutrient broth (PDB potato dextrose broth). After placing a (DMSO) solution of test compound into a microtiter plate (96-well format), the nutrient broth containing the fungal spores was added. The test plates were incubated at 24° C. and the inhibition of growth was determined photometrically 4-5 days after application.

[2] = test system: Puccinia Recondita f. sp. Tritici; assay: Puccinia recondita f. sp. tritici / wheat / leaf disc preventative (brown rust); type: in vivo; conditions: foliar, wheat leaf disc cv. Kanzler, compared to untreated, 7-9 days after application, read-out: disease control
Method: Fungicidal Activity Against Puccinia Recondita f. sp. Tritici/Wheat/Leaf Disc Preventative (Brown Rust) Wheat leaf segments cv. Kanzler were placed on agar in multiwell plates (24-well format) and sprayed with the formulated test compound diluted in water. The leaf disks were inoculated with a spore suspension of the fungus 1 day after application. The inoculated leaf segments were incubated at 19° C. and 75% rh under a light regime of 12 h light/12 h darkness in a climate cabinet and the activity of a compound was assessed as percent disease control compared to untreated when an appropriate level of disease damage appears in untreated check leaf segments (7-9 days after application).

[3] = test system: Puccinia Recondita f. sp. Tritici; assay: Puccinia recondita f. sp. tritici / wheat / leaf disc curative (brown rust); type: in vivo; conditions: foliar, 192 h, compared to untreated, 8 days after inoculation, read-out: disease control
Method: Fungicidal Activity Against Puccinia Recondita f. sp. Tritici/Wheat/Leaf Disc Curative (Brown Rust) Wheat leaf segments are placed on agar in multiwell plates (24-well format). The leaf disks are then inoculated with a spore suspension of the fungus. One day after inoculation the test solution is applied. After appropriate incubation the activity of a compound is assessed 8 dpi (days after inoculation) as curative fungicidal activity. Dose range: 200-22 ppm.

[4] = test system: Thanatephorus Cucumeris (Rhizoctonia Solani); assay: Thanatephorus cucumeris (Rhizoctonia solani) / liquid culture (foot rot, damping-off); type: cell-based; conditions: liquid culture (PDB), growth inhibition photometrically 3-4 days after application, read-out: disease control
Method: Fungicidal Activity Against Thanatephorus Cucumeris (Rhizoctonia Solani)/Liquid Culture (Foot Rot, Damping-Off) Mycelia fragments of a newly grown liquid culture of the fungus were directly mixed into nutrient broth (PDB potato dextrose broth). After placing a (DMSO) solution of the test compounds into a microtiter plate (96-well format), the nutrient broth containing the fungal material was added. The test plates were incubated at 24° C. and the inhibition of growth was determined photometrically 3-4 days after application. Compounds (from table T1) 1, 2, 4, 7, 8, 10, 11, 13, 14 and 17 at 200 ppm give at least 80% disease control in this test when compared to untreated control leaf disks under the same conditions, which show extensive disease development.

[5] = test system: Mycosphaerella Arachidis (Cercospora Arachidicola); assay: Mycosphaerella arachidis (Cercospora arachidicola) / liquid culture (early leaf spot); type: cell-based; conditions: liquid culture (PDB), growth inhibition photometrically 4-5 days after application, read-out: disease control
Method: as §1, with “Arachidis (Cercospora Arachidicola)/Liquid” for “Graminicola (Septoria Tritici)/Liquid”, “(Early Leaf Spot)” for “(Septoria Blotch)”

[6] = test system: Blumeria Graminis f. sp. Tritici (Erysiphe Graminis f. sp. Tritici); assay: Blumeria graminis f. sp. tritici / wheat / leaf disc preventative (powdery mildew on wheat); type: in vivo; conditions: foliar, wheat leaf disc cv. Kanzler, compared to untreated, 6-8 days after application, read-out: disease control
Method: Fungicidal Activity Against Blumeria Graminis f. sp. Tritici (Erysiphe Graminis f. sp. Tritici)/Wheat/Leaf Disc Preventative (Powdery Mildew on Wheat) Wheat leaf segments cv. Kanzler were placed on agar in a multiwell plate (24-well format) and sprayed with the formulated test compound diluted in water. The leaf disks were inoculated by shaking powdery mildew infected plants above the test plates 1 day after application. The inoculated leaf disks were incubated at 20° C. and 60% rh under a light regime of 24 h darkness followed by 12 h light/12 h darkness in a climate chamber and the activity of a compound was assessed as percent disease control compared to untreated when an appropriate level of disease damage appears on untreated check leaf segments (6-8 days after application).

OC(Cn1cncn1)(c1ccc(Cl)cc1)C1(c2ccccn2)CC1 (stereo not shown) [Compound 1, 1-(4-chlorophenyl)-1-[1-(2-pyridyl)cyclopropyl]-2-(1,2,4-triazol-1-yl)ethanol]
≥ 80%: inhibition of growth at 200 ppm [1] | pest or weed control at 200 ppm [2] | pest or weed control at 200 ppm [3] | inhibition of growth at 200 ppm [4] | inhibition of growth at 200 ppm [5] | pest or weed control at 200 ppm [6]

OC(Cn1cncn1)(c1ccc(F)cc1)C1(c2ncc(Br)cc2Cl)CC1 (stereo not shown) [Compound 2, 1-[1-(5-bromo-3-chloro-2-pyridyl)cyclopropyl]-1-(4-fluorophenyl)-2-(1,2,4-triazol-1-yl)ethanol]
≥ 80%: inhibition of growth at 200 ppm [1] | pest or weed control at 200 ppm [2] | pest or weed control at 200 ppm [3] | inhibition of growth at 200 ppm [4] | inhibition of growth at 200 ppm [5] | pest or weed control at 200 ppm [6]

OC(Cn1ccnc1)(c1ccc(F)cc1)C1(c2ccc(Br)cn2)CC1 (stereo not shown) [Compound 3, 1-[1-(5-bromo-2-pyridyl)cyclopropyl]-1-(4-fluorophenyl)-2-imidazol-1-yl-ethanol]
≥ 80%: pest or weed control at 200 ppm [2] | pest or weed control at 200 ppm [3] | pest or weed control at 200 ppm [6]

OC(Cn1cncn1)(c1ccc(F)cc1)C1(c2ccc(Br)cn2)CC1 (stereo not shown) [Compound 4, 1-[1-(5-bromo-2-pyridyl)cyclopropyl]-1-(4-fluorophenyl)-2-(1,2,4-triazol-1-yl)ethanol]
≥ 80%: pest or weed control at 200 ppm [2] | pest or weed control at 200 ppm [3] | inhibition of growth at 200 ppm [4] | inhibition of growth at 200 ppm [5] | pest or weed control at 200 ppm [6]

OC(Cn1ccnc1)(c1ccc(F)cc1)C1(c2ncc(Br)cc2Cl)CC1 (stereo not shown) [Compound 5, 1-[1-(5-bromo-3-chloro-2-pyridyl)cyclopropyl]-1-(4-fluorophenyl)-2-imidazol-1-yl-ethanol]
≥ 80%: pest or weed control at 200 ppm [2] | pest or weed control at 200 ppm [3] | pest or weed control at 200 ppm [6]

OC(Cn1cncn1)(c1ccc(F)cc1)C1(c2ccc(Br)c(-c3ccc(F)cc3)n2)CC1 (stereo not shown) [Compound 6, 1-[1-[5-bromo-6-(4-fluorophenyl)-2-pyridyl]cyclopropyl]-1-(4-fluorophenyl)-2-(1,2,4-triazol-1-yl)ethanol]
≥ 80%: pest or weed control at 200 ppm [2] | pest or weed control at 200 ppm [3] | inhibition of growth at 200 ppm [5] | pest or weed control at 200 ppm [6]

OC(Cn1cncn1)(c1ccc(F)cc1)C1(c2ccc(C3CC3)cn2)CC1 (stereo not shown) [Compound 7, 1-[1-(5-cyclopropyl-2-pyridyl)cyclopropyl]-1-(4-fluorophenyl)-2-(1,2,4-triazol-1-yl)ethanol]
≥ 80%: inhibition of growth at 200 ppm [1] | pest or weed control at 200 ppm [2] | pest or weed control at 200 ppm [3] | inhibition of growth at 200 ppm [4] | inhibition of growth at 200 ppm [5] | pest or weed control at 200 ppm [6]

N#Cc1ccc(-c2ccc(C3(C(O)(Cn4cncn4)c4ccc(F)cc4)CC3)nc2)cc1 (stereo not shown) [Compound 8, 4-[6-[1-[1-(4-fluorophenyl)-1-hydroxy-2-(1,2,4-triazol-1-yl)ethyl]cyclopropyl]-3-pyridyl]benzonitrile]
≥ 80%: inhibition of growth at 200 ppm [1] | pest or weed control at 200 ppm [2] | pest or weed control at 200 ppm [3] | inhibition of growth at 200 ppm [4] | inhibition of growth at 200 ppm [5] | pest or weed control at 200 ppm [6]

OC(Cn1cncn1)(c1ccc(F)cc1)C1(c2ccc(Cl)nc2)CC1 (stereo not shown) [Compound 9, 1-[1-(6-chloro-3-pyridyl)cyclopropyl]-1-(4-fluorophenyl)-2-(1,2,4-triazol-1-yl)ethanol]
≥ 80%: inhibition of growth at 200 ppm [1] | pest or weed control at 200 ppm [2] | pest or weed control at 200 ppm [3] | inhibition of growth at 200 ppm [5] | pest or weed control at 200 ppm [6]

OC(Cn1cncn1)(c1ccc(F)cc1)C1(c2ccccn2)CC1 (stereo not shown) [Compound 10, 1-(4-fluorophenyl)-1-[1-(2-pyridyl)cyclopropyl]-2-(1,2,4-triazol-1-yl)ethanol]
≥ 80%: inhibition of growth at 200 ppm [1] | pest or weed control at 200 ppm [2] | pest or weed control at 200 ppm [3] | inhibition of growth at 200 ppm [4] | inhibition of growth at 200 ppm [5] | pest or weed control at 200 ppm [6]

OC(Cn1cncn1)(c1ccc(Cl)cc1)C1(c2ccc(Cl)cn2)CC1 (stereo not shown) [Compound 11, 1-(4-chlorophenyl)-1-[1-(5-chloro-2-pyridyl)cyclopropyl]-2-(1,2,4-triazol-1-yl)ethanol]
≥ 80%: inhibition of growth at 200 ppm [1] | pest or weed control at 200 ppm [2] | pest or weed control at 200 ppm [3] | inhibition of growth at 200 ppm [4] | inhibition of growth at 200 ppm [5] | pest or weed control at 200 ppm [6]

N#Cc1ccc(C2(C(O)(Cn3cncn3)c3ccc(F)cc3)CC2)nc1 (stereo not shown) [Compound 12, 6-[1-[1-(4-fluorophenyl)-1-hydroxy-2-(1,2,4-triazol-1-yl)ethyl]cyclopropyl]pyridine-3-carbonitrile]
≥ 80%: inhibition of growth at 200 ppm [1] | pest or weed control at 200 ppm [2] | pest or weed control at 200 ppm [3] | pest or weed control at 200 ppm [6]

OC(Cn1cncn1)(c1ccc(F)cc1)C1(c2ccc(C(F)(F)F)cn2)CC1 (stereo not shown) [Compound 13, 1-(4-fluorophenyl)-2-(1,2,4-triazol-1-yl)-1-[1-[5-(trifluoromethyl)-2-pyridyl]cyclopropyl]ethanol]
≥ 80%: inhibition of growth at 200 ppm [1] | pest or weed control at 200 ppm [2] | pest or weed control at 200 ppm [3] | inhibition of growth at 200 ppm [4] | inhibition of growth at 200 ppm [5] | pest or weed control at 200 ppm [6]

OC(Cn1cncn1)(c1ccc(F)cc1)C1(c2ccc(Cl)cn2)CC1 (stereo not shown) [Compound 14, 1-[1-(5-chloro-2-pyridyl)cyclopropyl]-1-(4-fluorophenyl)-2-(1,2,4-triazol-1-yl)ethanol]
≥ 80%: inhibition of growth at 200 ppm [1] | pest or weed control at 200 ppm [2] | pest or weed control at 200 ppm [3] | inhibition of growth at 200 ppm [4] | inhibition of growth at 200 ppm [5] | pest or weed control at 200 ppm [6]

OC(Cn1cncn1)(c1ccc(Cl)cc1)C1(c2ccccn2)CCCC1 (stereo not shown) [Compound 15, 1-(4-chlorophenyl)-1-[1-(2-pyridyl)cyclopentyl]-2-(1,2,4-triazol-1-yl)ethanol]
≥ 80%: inhibition of growth at 200 ppm [1] | pest or weed control at 200 ppm [2] | pest or weed control at 200 ppm [3] | inhibition of growth at 200 ppm [5] | pest or weed control at 200 ppm [6]

OC(Cn1cncn1)(c1ccc(Cl)cc1)C1(c2ccc(Cl)cn2)CCC1 (stereo not shown) [Compound 16, 1-(4-chlorophenyl)-1-[1-(5-chloro-2-pyridyl)cyclobutyl]-2-(1,2,4-triazol-1-yl)ethanol]
≥ 80%: inhibition of growth at 200 ppm [1] | pest or weed control at 200 ppm [2] | pest or weed control at 200 ppm [3] | inhibition of growth at 200 ppm [5] | pest or weed control at 200 ppm [6]

OC(Cn1cncn1)(c1ccc(F)cc1)C1(c2ccc(-c3cccc(OC(F)(F)F)c3)cn2)CCC1 (stereo not shown) [Compound 18, 1-(4-fluorophenyl)-2-(1,2,4-triazol-1-yl)-1-[1-[5-[3-(trifluoromethoxy)phenyl]-2-pyridyl]cyclobutyl]ethanol]
≥ 80%: inhibition of growth at 200 ppm [1] | inhibition of growth at 200 ppm [5] | pest or weed control at 200 ppm [6]

OC(Cn1cncn1)(c1ccc(F)cc1)C1(c2ccc(-c3ccc(Cl)cc3F)cn2)CCC1 (stereo not shown) [Compound 19, 1-[1-[5-(4-chloro-2-fluoro-phenyl)-2-pyridyl]cyclobutyl]-1-(4-fluorophenyl)-2-(1,2,4-triazol-1-yl)ethanol]
≥ 80%: inhibition of growth at 200 ppm [1] | inhibition of growth at 200 ppm [5] | pest or weed control at 200 ppm [6]
